From article PMC3984115 (PLoS ONE, 2014)
Where “and” joins values, the source holds several entries; their conditions need not be identical. Identical values can stand only once. Like-named read-outs stand apart in the source and are kept apart here. Where no end group is shown, it is not given here.

Experiments:
human α6/α3β4 nAChR = target: T1, human α6/α3β4 nAChR (Homo sapiens, UniProt P30926+P32297+Q15825); type: cell-based
T1 construct: expressed in transfected cells; host or cells: Xenopus laevis oocytes (cRNA injection, 1:1 ratio)

[1] = test system: heteromeric receptor subtypes that contain the β2 subunit; set-up: method as in PMID 10692507; details: β2-containing heteromeric receptors; ref [38]; cited from earlier work
[2] = test system: nAChRs in monkey adrenal chromaffin cells; test: Agonist-evoked currents, perforated-patch patch-clamp, monkey adrenal chromaffin cells; type: cell-based, monkey (Macaca mulatta); details: for current amplitude (choline comparison cells): 10 mM choline versus 300 μM ACh in the same cells
M. mulatta α7 nAChRs = details: heterologously expressed M. mulatta α7; ref [37]; cited from earlier work
[3] = test system: release of dopamine from dopaminergic terminals of rat striatal neurons; details: cited from earlier work
[4] = test system: release of dopamine from dopaminergic terminals of mouse striatal neurons; details: cited from earlier work

T1 sequence (P30926 whole entry, looked up): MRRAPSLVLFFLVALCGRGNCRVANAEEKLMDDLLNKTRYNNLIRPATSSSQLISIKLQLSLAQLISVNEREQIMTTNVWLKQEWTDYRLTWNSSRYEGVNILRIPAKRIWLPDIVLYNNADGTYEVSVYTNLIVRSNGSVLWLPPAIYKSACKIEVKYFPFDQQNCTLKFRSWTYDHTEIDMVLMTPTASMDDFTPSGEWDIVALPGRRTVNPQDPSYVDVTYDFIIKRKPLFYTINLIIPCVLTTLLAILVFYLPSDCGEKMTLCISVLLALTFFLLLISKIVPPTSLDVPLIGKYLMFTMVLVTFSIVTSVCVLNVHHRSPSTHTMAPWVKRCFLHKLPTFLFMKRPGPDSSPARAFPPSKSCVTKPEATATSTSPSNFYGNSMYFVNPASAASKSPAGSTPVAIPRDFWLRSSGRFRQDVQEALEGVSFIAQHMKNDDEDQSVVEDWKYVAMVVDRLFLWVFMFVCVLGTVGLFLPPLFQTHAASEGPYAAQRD
T1 sequence (P32297 whole entry, looked up): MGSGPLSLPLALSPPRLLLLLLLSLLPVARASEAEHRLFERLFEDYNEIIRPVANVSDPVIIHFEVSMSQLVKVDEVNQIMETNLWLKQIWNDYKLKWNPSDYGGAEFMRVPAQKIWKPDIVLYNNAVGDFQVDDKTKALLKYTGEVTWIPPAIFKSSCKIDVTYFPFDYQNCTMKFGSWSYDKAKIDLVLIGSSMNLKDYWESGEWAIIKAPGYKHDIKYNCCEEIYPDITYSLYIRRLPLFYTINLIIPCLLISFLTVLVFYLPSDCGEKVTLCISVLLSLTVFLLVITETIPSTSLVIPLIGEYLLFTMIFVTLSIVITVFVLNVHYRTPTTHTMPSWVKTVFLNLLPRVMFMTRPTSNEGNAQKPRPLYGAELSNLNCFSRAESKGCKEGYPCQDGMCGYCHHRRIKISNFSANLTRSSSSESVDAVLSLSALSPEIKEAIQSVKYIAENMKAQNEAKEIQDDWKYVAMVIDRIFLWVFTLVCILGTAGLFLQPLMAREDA
T1 sequence (Q15825 whole entry, looked up): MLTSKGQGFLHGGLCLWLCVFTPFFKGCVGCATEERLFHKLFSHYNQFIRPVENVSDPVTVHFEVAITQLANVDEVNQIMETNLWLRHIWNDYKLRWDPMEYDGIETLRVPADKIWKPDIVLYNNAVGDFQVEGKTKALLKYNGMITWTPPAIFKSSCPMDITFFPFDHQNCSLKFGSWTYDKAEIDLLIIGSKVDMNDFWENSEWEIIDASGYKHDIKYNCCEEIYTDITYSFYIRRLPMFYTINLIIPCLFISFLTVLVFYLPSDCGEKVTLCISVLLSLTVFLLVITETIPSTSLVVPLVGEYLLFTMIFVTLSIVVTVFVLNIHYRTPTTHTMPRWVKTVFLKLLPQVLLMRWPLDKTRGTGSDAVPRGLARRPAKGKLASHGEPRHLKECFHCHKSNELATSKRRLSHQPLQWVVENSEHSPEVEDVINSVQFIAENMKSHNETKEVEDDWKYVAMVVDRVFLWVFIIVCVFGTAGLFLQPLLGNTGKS

## Ic1cncc(OC[C@@H]2CCN2)c1 [5-I-A-85380]
Human α6/α3β4 nAChR
  current amplitude as % of that produced by 300 μM ACh in the same cells: 100±12.1% and 100±12%
  efficacy versus 300 μM ACh, in words: as efficacious as 300 μM ACh
[1]
  affinity in words: high affinity
[2]
  efficacy versus 300 μM ACh, in words: more efficacious than 300 μM ACh
  response to agonist, in words: responded
[2]; n = 4
  current amplitude (5-I-A-85380 comparison cells): 1088±120 pA
  current amplitude relative to ACh (printed "% larger than the currents evoked by ACh"): 170±16%
  current density: 256±28 pA/pF

## CC(=O)OCC[N+](C)(C)C [ACh, acetylcholine]
[2]; 100 μM 5-I-A-85380 versus 300 μM ACh in the same cells, n = 4, ± S.E.M.
  current amplitude (5-I-A-85380 comparison cells): 657± 97 pA
[2]; 100 μM 5-I-A-85380 versus 300 μM ACh in the same cells, n = 4, ± S.E.M., difference not statistically significant, p = 0.0625
  current density: 149±22 pA/pF
[2]; 300 μM ACh, mean ± S.D.M, n = 18, holding potential −80 mV, 200 ms pulses
  peak current amplitude: 865 ± 387 pA
[2]; n = 4, ± S.E.M.
  current amplitude (choline comparison cells): 1245±238 pA

## C[N+](C)(C)CCO [choline]
[2]; n = 4, ± S.E.M.
  current amplitude (choline comparison cells): 21±4 pA
[2]; 10 mM choline, n = 4, ± S.E.M., holding potential −80 mV
  current amplitude as % of response evoked by 300 μM ACh in the same cells: 1.7±0.1%
[2]; cells with currents evoked by acetylcholine
  response to agonist, in words: relatively unresponsive
M. mulatta α7 nAChRs
  agonist activity in words: full agonist

## α-Ctx MII (GCCSNPVCHLEHSNLC; ends and bridges not checked; cysteine pairing not given here; UniProt P56636 49-64, looked up)
[3]
  sensitivity of dopamine release to toxin, in words: sensitive
[4]
  sensitivity of dopamine release to toxin, in words: sensitive
